Where two headings read alike, the source gives them in different places.
Assays:
[1] = cited from earlier work
[2] = Preliminary experiments: salt-induced precipitation/aggregation of 0.2% w/v aqueous Trypan Blue; format: physicochemical
[3] = Dye precipitation on mixing Nominal 0.4% Trypan Blue in NaCl with polycationic compounds; format: physicochemical; conditions: Nominal 0.4% Trypan Blue in NaCl (0.20 mL) mixed with 0.5 mg mL^−1 compound in PBS (0.20 mL)
Source text: In the present study, Trypan Blue was mixed with various cell culture medium containing polycationic compounds. Nominal 0.4% Trypan Blue in NaCl was mixed with PBS (negative control), kanamycin (a positively charged aminoglycoside), and spermidine (a positively charged polyamine). […] This effect can be reasonably generalized to other polycationic compounds, particularly those containing amine functional groups.

Cc1cc(-c2ccc(/N=N/c3ccc4c(S(=O)(=O)O)cc(S(=O)(=O)O)c(N)c4c3O)c(C)c2)ccc1/N=N/c1ccc2c(S(=O)(=O)O)cc(S(=O)(=O)O)c(N)c2c1O [Evans Blue]
Solubility of precipitate with neomycin ([1]; pH 8.5): insoluble | Solubility of precipitate with neomycin ([1]; pH 10.4): dissolves

Cc1cc(-c2ccc(/N=N/c3c(S(=O)(=O)O)cc4cc(S(=O)(=O)O)cc(N)c4c3O)c(C)c2)ccc1/N=N/c1c(S(=O)(=O)O)cc2cc(S(=O)(=O)O)cc(N)c2c1O [Trypan Blue]
Formation of red colored dye aggregates ([2]; 0.2% w/v in deionized water, two weeks at 4° C.): did not form red colored dye aggregates

[Cl-].[Cs+] [cesium chloride]
Dye aggregation of Trypan Blue in presence of salt ([2]; 150 mM concentrations): produced dye aggregation

[Cl-].[Li+] [lithium chloride]
Dye aggregation of Trypan Blue in presence of salt ([2]; concentrations as high as 600 mM): did not promote dye aggregation

O=P([O-])(O)O.[Na+] [monosodium phosphate]
Dye aggregation of Trypan Blue in presence of salt ([2]; 150 mM sodium concentrations): promoted dye aggregation

[Cl-].[K+] [potassium chloride]
Dye aggregation of Trypan Blue in presence of salt ([2]; 150 mM concentrations): produced dye aggregation

[Cl-].[Na+] [sodium chloride]
Precipitation of 0.2% w/v Trypan Blue ([2]; 150 mM salt, storage for 16 hours at 4° C.): exhibited precipitation | Precipitation of the dye from 0.2% w/v aqueous solution of Trypan Blue ([2]; addition of 250 mM salt): rapid precipitation of the dye

O=S([O-])[O-].[Na+].[Na+] [sodium sulfite]
Dye aggregation of Trypan Blue in presence of salt ([2]; 150 mM sodium concentrations): promoted dye aggregation

NCCCCNCCCN [spermidine]
Precipitation of Trypan Blue [3]: trigger immediate precipitation of Trypan Blue

Source: patent publication US12559629B2, “Method for preparing a stable Trypan Blue solution” (BECKMAN COULTER, INC., priority 2020, dated 2026)
